The record followed here is US9650428B2, “Methods and compositions for treating cancer” (Roger Williams Hospital, priority 2014, dated 2017).

For this assay, the system named is U251MG glioma cells. The assay is described as follows: In vivo efficacy in athymic nude mice with subcutaneous U251MG glioma. To be noted: tumor-bearing mice; TMZ alone orally 64 mg/kg/day for 4 days, no T cells (Group III). As to the method:
The in vivo efficacy of the IL13E13K.R109K-2A-P140KMGMT construct was tested in mice using the viral particles generated as described in Example 2. Fifty athymic nude mice were injected subcutaneously (left flank) with U251MG glioma cells (40 mice; Groups I-IV) or PBS (10 mice). Four days after glioma implantation, 3 groups of mice (Groups I, II and III, 10 mice/group) were treated orally with TMZ (64 mg/kg/day by oral gavage) for 4 days. On the 5th day after glioma implantation, the 3 groups of mice that had been treated orally with TMZ were treated as follows: Group I: an intra-tumoral injection of the IL13E13K.R109KCAR-2A-P140KMGMT construct (TMZ-resistant); Group II: the IL13 IL13E13K.R109K construct with no MGMT (TMZ sensitive); Group III: treatment with PBS only (no injection of T cells). Group IV received no T cells or TMZ treatment. The mice were monitored for visual tumor growth, behavioral changes, and morbidity until day 90 after injection of the T cells at which time the mice were sacrificed as required by IACUC restrictions.

Take `Cn1nnc2c(C(N)=O)ncn2c1=O` [TMZ, temozolomide]: the median survival time was 36 days and the survival rate amounted to 20%.
